Measured values from paper PMC5974779, “Prediction of Drug-Induced Hepatotoxicity Using Long-Term Stable Primary Hepatic 3D Spheroid Cultures in Chemically Defined Conditions” (Toxicological Sciences, 2018).
Like-named read-outs stand apart in the source and are kept apart here.

Assays:
[1] = system: primary human hepatocytes (PHH) 3D spheroids
PHH 2D sandwich cultures = conditions: cited from earlier work
[2] = ref DrugBank and Prescribers' Digital Reference database; cited from earlier work
clinical DILI in man = conditions: cited from earlier work; for Clinical DILI classification (Figure 5): structural analogue pairs, 2008 and others
[3] = system: PHH spheroids (hanging-drop); conditions: cited from earlier work; for hepatotoxicity classification in hanging-drop PHH spheroids: 100× cmax, 2 weeks, ref Proctor et al., 2017
[4] = therapeutic total cmax; ref PMID; cited from earlier work
[5] = PHH 2D sandwich cultures, 100x Cmax, ref Xu 2008
[6] = FDA drug labeling DILI score, ref Chen et al., 2011
[7] = clinical DILI classification in man (POS/NEG)
[8] = clinical DILI classification used in this study, Supplementary Table 2, ref Chen et al., 2011, Guo et al., 2005, O'Brien et al., 2006, Sakatis et al., 2012, Suzuki et al., 2010, Xu et al., 2008
[9] = clinical DILI classification, Supplementary Table 1, ref Chen et al., 2011, Guo et al., 2005, O'Brien et al., 2006, Sakatis et al., 2012, Suzuki et al., 2010, Xu et al., 2008
[10] = clinical DILI classification, ref Xu et al. (2008)
[11] = reported pattern of liver damage, Supplementary Table 2, ref literature
[12] = PHH hanging-drop spheroids, 100x Cmax, ref Proctor 2017
[13] = DILI classification score, ref Suzuki et al. (2010)
[14] = clinical hepatotoxicity classification, ref O'Brien et al. (2003)
[15] = ref Chen et al., 2011, Xu et al.

SMILES	Chemically defined spheroids (this study) 20x [1]	2Dsw (Xu 2008) 100x (PHH 2D sandwich cultures; [5])	Extent of hepatic metabolism [2]	DILI in vivo (clinical DILI in man; [7])	Classified as (clinical DILI in man; [8])	DILI in vivo (clinical DILI in man; [9])	Type of DILI (clinical DILI in man; [11])	Hanging-drop spheroids (Proctor 2017) 100x [3, 12]	Cmax [4] [µM]	Classified as (clinical DILI in man; in vivo)	Clinical DILI class (panel heading of Figure 4) (clinical DILI in man; in vivo)	DILI in vivo (clinical DILI in man; in vivo)	FDA (0-8) (clinical DILI in man; in vivo)	Type of DILI (clinical DILI in man; in vivo)	further results
CC(C)(C)NCC(O)COc1cccc2c1CC(O)C(O)C2 (centres unmarked) [Nadolol]	Negative	Negative	Minimal	NEG	NEG	NEG	Non-hepatotoxic	Negative	–	–	–	–	–	–	FDA (0-8) (clinical DILI in man; [6]): 3; Xu et al. (2008) (clinical DILI in man; [10]): Negative
Clc1ccccc1CN1CCc2sccc2C1 [Ticlopidine]	–	Positive	–	–	–	–	–	Positive	8.07	–	–	–	–	–	–
CN(Cc1cnc2nc(N)nc(N)c2n1)c1ccc(C(=O)N[C@@H](CCC(=O)O)C(=O)O)cc1 [Methotrexate]	Positive	Negative	Moderate	POS	POS	POS	Hepatocellular injury	Negative	–	–	–	–	–	–	hepatotoxicity evaluation in CD-spheroids [1]: revealed the DILI liability; hepatotoxicity evaluation in CD-spheroids ([1]; human, 14 days): clearly detected already at 1× cmax exposure levels; Guo et al. (2005) (clinical DILI in man; DILI classification score, ref Guo et al. (2005)): 3; Suzuki et al. (2010) (clinical DILI in man; [13]): 1; FDA (0-8) (clinical DILI in man; [6]): 3; Xu et al. (2008) (clinical DILI in man; [10]): Positive; O'Brien et al. (2003) (clinical DILI in man; [14]): Severely; Sakatis et al. (2012) (clinical DILI in man; clinical hepatotoxicity classification, ref Sakatis et al. (2012)): Hepatotoxic; hepatotoxicity classification in hanging-drop PHH spheroids [3]: previously missed
CN(C)CCC(c1ccc(Cl)cc1)c1ccccn1 (centres unmarked) [Chlorpheniramine]	–	–	Extensive	–	–	–	–	Negative	–	NEG	DILI negative	NEG	0	Non-hepatotoxic	Xu et al. (2008) (clinical DILI in man; in vivo): Positive
Cc1ccccc1C(OCCN(C)C)c1ccccc1 (centres unmarked) [Orphenadrine]	–	Negative	Extensive	–	–	–	–	Negative	0.49	NEG	DILI negative	NEG	0	Non-hepatotoxic	Sakatis et al. (2012) (clinical DILI in man; in vivo): non-hepatotixic; Xu et al. (2008) (clinical DILI in man; in vivo): Negative
CC(C(=O)O)c1ccc2oc(-c3ccc(Cl)cc3)nc2c1 (centres unmarked) [Benoxaprofen]	Negative	–	Moderate	–	–	–	–	Negative	33.1	POS	Severe DILI	POS	Withdrawn	Hepatocellular injury	FDA (Severity) (clinical DILI in man; in vivo): most DILI concern; Suzuki et al. (2010) (clinical DILI in man; in vivo): 3
O=C1CN(/N=C/c2ccc([N+](=O)[O-])o2)C(=O)N1 [Nitrofurantoin]	–	–	Minimal	–	–	–	–	Positive	21	POS	Severe DILI	POS	8	Hepatocellular injury or Autoimmune hepatitis	FDA (Severity) (clinical DILI in man; in vivo): most DILI concern; Guo et al. (2005) (clinical DILI in man; in vivo): 3; O'Brien et al. (2003) (clinical DILI in man; in vivo): Severely; Sakatis et al. (2012) (clinical DILI in man; in vivo): Hepatotoxic; Suzuki et al. (2010) (clinical DILI in man; in vivo): 2; association with idiopathic autoimmune hepatitis (clinical DILI in man; in vivo): associated with cases of idiopathic autoimmune hepatitis
CN(CCOc1ccc(CC2SC(=O)NC2=O)cc1)c1ccccn1 (centres unmarked) [Rosiglitazone]	–	Negative	Extensive	NEG	NEG	NEG	Non-hepatotoxic	Positive	0.95	–	–	–	–	–	FDA (0-8) (clinical DILI in man; [6]): 3; Xu et al. (2008) (clinical DILI in man; [10]): Negative; O'Brien et al. (2003) (clinical DILI in man; [14]): Non-toxic; Clinical DILI classification (Figure 5) (clinical DILI in man; [15]): DILI negative
COc1ccc2c(c1)c(CC(=O)O)c(C)n2C(=O)c1ccc(Cl)cc1 [Indomethacin]	Positive	–	–	–	–	–	–	–	–	–	–	–	–	–	hepatotoxicity evaluation in CD-spheroids [1]: revealed the DILI liability; hepatotoxicity evaluation in CD-spheroids ([1]; human, 14 days): clearly detected already at 1× cmax exposure levels; hepatotoxicity classification in hanging-drop PHH spheroids [3]: previously missed
CS(=O)(=O)Nc1ccc([N+](=O)[O-])cc1Oc1ccccc1 [Nimesulide]	Positive	–	–	–	–	–	–	–	21.1	POS	Severe DILI	POS	Withdrawn	Hepatocellular injury or Cholestatic injury	2Dsw (Xu 2008) 100x (PHH 2D sandwich cultures): Positive; FDA (Severity) (clinical DILI in man; in vivo): most DILI concern; O'Brien et al. (2003) (clinical DILI in man; in vivo): Severely; Sakatis et al. (2012) (clinical DILI in man; in vivo): Hepatotoxic; Suzuki et al. (2010) (clinical DILI in man; in vivo): 3; Xu et al. (2008) (clinical DILI in man; in vivo): Positive; Hanging-drop spheroids (Proctor 2017) 100x [3]: Positive
C#CCN(C)Cc1ccccc1 [Pargyline]	Negative	–	Moderate	NEG	NEG	NEG	Non-hepatotoxic	Negative	0.82	–	–	–	–	–	–
CCN(CC)CC#CCOC(=O)C(O)(c1ccccc1)C1CCCCC1 (centres unmarked) [Oxybutynin]	Negative	–	–	–	–	–	–	–	0.02	NEG	DILI negative	NEG	0	Non-hepatotoxic	2Dsw (Xu 2008) 100x (PHH 2D sandwich cultures): Negative; Sakatis et al. (2012) (clinical DILI in man; in vivo): non-hepatotixic; Xu et al. (2008) (clinical DILI in man; in vivo): Negative; Hanging-drop spheroids (Proctor 2017) 100x [3]: Negative
COc1ccccc1Oc1c(NS(=O)(=O)c2ccc(C(C)(C)C)cc2)nc(-c2ncccn2)nc1OCCO [Bosentan]	Positive	–	Extensive	POS	POS	POS	Hepatocellular injury or Mixed hepatitis	Positive	–	–	–	–	–	–	hepatotoxicity evaluation in CD-spheroids [1]: clearly detected bosentan-induced liver injury; Suzuki et al. (2010) (clinical DILI in man; [13]): 1; FDA (Severity) (clinical DILI in man; FDA drug labeling DILI concern, ref Chen et al., 2011): most DILI concern; FDA (0-8) (clinical DILI in man; [6]): 7; Clinical DILI classification (Figure 5) (clinical DILI in man; [15]): DILI positive
CCCCc1oc2ccccc2c1C(=O)c1cc(I)c(OCCN(CC)CC)c(I)c1 [Amiodarone]	–	Positive	–	–	–	–	–	Positive	–	–	–	–	–	–	–
